These results are taken from patent publication US6486164B2, “6-(4-arylalkylpiperazin-1-yl) benzodioxane and 6-(4-arylalkylpiperazin-1-yl) chromane derivatives: dopamine receptor subtype specific ligands” (Neurogen Corporation, priority 1998, dated 2002).

Counter-ions that a name gives are not always drawn. Like-named read-outs stand apart in the source and are kept apart here. Where only a bound is given, the exact number is not on record here.

One data set concerns the target T1, D4 receptors from human (Homo sapiens, UniProt P21917).
T1 construct: expressed in transfected cells; host or cells: COS cells
T1 sequence (P21917 1-419): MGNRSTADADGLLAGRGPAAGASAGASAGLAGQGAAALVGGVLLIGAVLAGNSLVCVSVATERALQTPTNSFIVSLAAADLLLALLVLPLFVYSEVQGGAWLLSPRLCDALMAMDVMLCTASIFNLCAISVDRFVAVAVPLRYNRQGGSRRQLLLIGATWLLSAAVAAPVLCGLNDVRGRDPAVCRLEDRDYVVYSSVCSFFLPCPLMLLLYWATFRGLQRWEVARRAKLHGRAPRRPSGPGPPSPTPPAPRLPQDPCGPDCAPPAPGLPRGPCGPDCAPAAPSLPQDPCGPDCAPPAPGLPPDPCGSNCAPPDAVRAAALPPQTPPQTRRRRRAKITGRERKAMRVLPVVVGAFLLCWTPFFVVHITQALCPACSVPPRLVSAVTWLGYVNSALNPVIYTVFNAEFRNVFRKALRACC
The experiment in a line: D4 receptor binding assay (3H-YM 09151-2 displacement). On the procedure:
(§1) Pellets of COS cells containing recombinantly produced D2, D3 or D4 receptors from human are used for the assays. The sample is homogenized in 100 volumes (w/vol) of 0.05 M Tris HCl buffer at 4° C. and pH 7.4. The sample is then centrifuged at 30,000×g and resuspended and rehomogenized. The sample is then centrifuged as described and the final tissue sample is frozen until use. The tissue is resuspended 1:20 (wt/vol) in 0.05 M Tris HCl buffer containing 100 mM NaCl.

For a further data set, the target named is T2, D2 receptors from human (Homo sapiens, UniProt P14416).
T2 construct: expressed in transfected cells; host or cells: COS cells
Description: D2 receptor binding assay (3H-YM 09151-2 displacement). The protocol: as §1

The next data set deals with T3, D3 receptors from human (Homo sapiens, UniProt P35462).
T3 construct: expressed in transfected cells; host or cells: COS cells
Description: D3 receptor binding assay (3H-YM 09151-2 displacement). The protocol: as §1

The mark [1] stands for this setting: recombinant human receptor in COS cells, 0.5 nM 3H-YM 09151-2, read-out: D4 Ki.
Setting [2] is: recombinant human receptor in COS cells, 0.5 nM 3H-YM 09151-2, read-out: D2 Ki.
Setting [3] is: recombinant human receptor in COS cells, 0.5 nM 3H-YM 09151-2, read-out: D3 Ki.

Usually melting point stands for the temperature, or range, at which the solid turns liquid. The Ki is a dissociation constant, usually derived from enzyme kinetics or from competition with a known ligand.

T3 sequence (P35462 whole entry): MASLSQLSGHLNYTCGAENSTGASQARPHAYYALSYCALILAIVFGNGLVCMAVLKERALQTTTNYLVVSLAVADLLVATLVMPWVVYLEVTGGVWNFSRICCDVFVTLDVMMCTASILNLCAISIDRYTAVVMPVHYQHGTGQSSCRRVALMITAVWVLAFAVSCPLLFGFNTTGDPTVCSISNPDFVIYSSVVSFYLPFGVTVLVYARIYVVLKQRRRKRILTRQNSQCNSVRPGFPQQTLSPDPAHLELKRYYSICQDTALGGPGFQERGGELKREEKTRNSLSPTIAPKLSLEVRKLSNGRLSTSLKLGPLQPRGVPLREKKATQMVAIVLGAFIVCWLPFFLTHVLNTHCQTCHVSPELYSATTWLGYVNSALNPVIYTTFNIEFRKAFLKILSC
T2 sequence (P14416 whole entry): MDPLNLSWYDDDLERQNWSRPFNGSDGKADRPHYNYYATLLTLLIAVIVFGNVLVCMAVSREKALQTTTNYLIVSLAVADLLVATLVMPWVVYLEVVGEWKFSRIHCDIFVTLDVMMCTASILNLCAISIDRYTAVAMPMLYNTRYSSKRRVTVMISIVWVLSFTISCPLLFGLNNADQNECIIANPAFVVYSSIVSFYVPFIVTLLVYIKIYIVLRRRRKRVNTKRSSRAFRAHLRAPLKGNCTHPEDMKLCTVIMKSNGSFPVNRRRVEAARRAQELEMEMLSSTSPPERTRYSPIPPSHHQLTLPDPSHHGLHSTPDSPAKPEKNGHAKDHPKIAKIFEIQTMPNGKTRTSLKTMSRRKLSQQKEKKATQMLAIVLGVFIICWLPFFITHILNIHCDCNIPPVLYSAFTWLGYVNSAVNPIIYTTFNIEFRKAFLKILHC

On to `Cl.c1ccc(CN2CCN(c3ccc4c(c3)OCCO4)CC2)cc1`, for which the melting point was in the range of 143 to 145 °C. `Cc1ccc(CN2CCN(c3ccc4c(c3)OCCO4)CC2)cc1.O=C(O)C(=O)O` displayed a melting point of 200 to 201 °C. Same read-out and setting: in the case of `COc1ccc(CN2CCN(c3ccc4c(c3)OCCO4)CC2)cc1.O=C(O)C(=O)O` it was 193 to 195 °C; in that of `Clc1cccc(CN2CCN(c3ccc4c(c3)OCCO4)CC2)c1.O=C(O)C(=O)O`, 213 to 215 °C; in that of `Clc1ccccc1CN1CCN(c2ccc3c(c2)OCCO3)CC1.O=C(O)C(=O)O`, 175 °C. Still for that read-out and setting: in the case of `COc1ccccc1CN1CCN(c2ccc3c(c2)OCCO3)CC1.O=C(O)C(=O)O` it was 143 °C.

Consider “1-(Chroman-6-yl)-4-(4-methylbenzyl)piperazine Oxalate [Compound 4]”, for which the Ki on D4 receptors from human (setting [1]) worked out at 0.035 µM; on D2 receptors from human (setting [2]), 2.31 µM; on D3 receptors from human (setting [3]) it was 2.99 µM. `COc1cccc(CN2CCN(c3ccc4c(c3)OCCO4)CC2)c1` (as salt: oxalate) [Compound 2, 1-(1,4-benzodioxan-6-yl)-4-(3-methoxybenzyl)piperazine oxalate] gave a melting point of 213 to 215 °C. The molecule `Clc1ccc(CN2CCN(c3ccc4c(c3)OCCO4)CC2)cc1` (as salt: oxalate) [Compound 3, 1-(1,4-benzodioxan-6-yl)-4-(4-chlorobenzyl)piperazine oxalate] came in with a melting point of 213 to 215 °C. In the case of `Fc1ccc(CN2CCN(c3ccc4c(c3)OCCO4)CC2)cc1` [Compound 1, 1-(1,4-Benzodioxan-6-yl)-4-(4-fluorobenzyl)piperazine Oxalate], the Ki at D4 receptors from human was 0.011 µM; at D2 receptors from human, above 4 µM; on D3 receptors from human it was 3.66 µM. For `COc1cccc(CN2CCN(c3ccc4c(c3)OCCO4)CC2)c1` [Compound 2, 1-(1,4-benzodioxan-6-yl)-4-(3-methoxybenzyl)piperazine oxalate], the values for the Ki at D4 receptors from human (setting [1]), at D2 receptors from human (setting [2]) and on D3 receptors from human (setting [3]) were 0.037 µM, 2.59 µM and 2.57 µM, respectively. For `Clc1ccc(CN2CCN(c3ccc4c(c3)OCCO4)CC2)cc1` [Compound 3, 1-(1,4-benzodioxan-6-yl)-4-(4-chlorobenzyl)piperazine oxalate], the Ki at D4 receptors from human was 0.025 µM; at D2 receptors from human, above 4 µM; on D3 receptors from human it was 2.63 µM.
